One test has as its target USP30 (Homo sapiens (Human), UniProt Q70CQ3). The experiment in a line: USP30 biochemical IC50.
The test system of test [1] is Ba/F3-EPOR-JAK2-V617F-expressing cells. The experiment in a line: Ba/F3 cell proliferation (CellTiter Glo). It is filed as cell-based, murine. On the procedure: Proliferation and Drug Combination Studies. Proliferation and drug combination studies were carried out as previously described (Yang, et al., 2020, British Journal of Cancer, 122:1175-84).
As toxicities can result from small molecule targeting of both oncogenic mutated JAK2 as well as its non-mutated counterpart, a chemical genetics screen was designed and performed of a DUB-focused small molecule inhibitor library with the goal of leveraging crosstalk between phosphorylation and ubiquitination to identify DUB inhibitors able to selectively degrade mutant JAK2 while sparing wt JAK2. Of relevance, activated FLT3 can be selectively degraded over the wt enzyme by inhibition of the DUB, USP10, (Wernig, et al., 2008, Blood, 111(7):3751-9) and similar to FLT3, JAK2 is ubiquitinated in an activation-dependent manner. In brief, the library of known and novel DUB inhibitors was evaluated for ability to suppress growth of Ba/F3-EPOR-JAK2-V617F-expressing cells selectively over Ba/F3-EPOR cells growing in the presence of interleukin-3.
(§1) A broader range of compounds 1 and 2, including concentrations lower than 1 μM, were also tested on growth of EPOR-JAK2-V617F-expressing Ba/F3 cells and parental Ba/F3 EpoR+ cells (24 hours treatment on 4000 cells per well) (FIG. 18-FIG. 18B). Cell growth inhibition (FIG. 17A-FIG. 17B, FIG. 18A-FIG. 18B) was tested on Ba/F3-EPOR-JAK2-V617F (-IL-3/WEHI) and parental Ba/F3-EPOR cells (+IL-3/WEHI) plated at 2000 cells per well, at 1, 3 and 10 μM for 24 hours using the Promega CellTiter Glo® assay.
In general terms: In ATP-based viability assays light output follows the ATP content of the culture.

In another test the target is wt JAK2 (Mus musculus (Mouse), UniProt Q62120). The experiment in a line: JAK2 protein level by western blotting in Ba/F3-EPOR-JAK2 wt cells. It is filed as cell-based. How it is done: (§2) Immunoblotting and Immunoprecipitation. Protein lysate preparation, immunoblotting, and immunoprecipitation were carried out as previously described (Lamberto, et al., 2017 Cell Chem Biol., 224(12):1490-500 e11). Briefly, 0.7×10^6 cells were treated with compounds 1 and 2 at 0, 5, 10, and 20 μM for 16 or 24 hours, cells were collected, and lysate was prepared in radioimmunoprecipitation assay (RIPA) buffer, JAK family and downstream signaling protein levels were detected by western blotting with the indicated antibodies. For immunoprecipitation, 1 mg protein for each sample was prepared and 1 μg antibody was used, immunoglobulin G (IgG) was added in same amount as nontargeting control.

The target of a further test is MCL-1 (Homo sapiens (Human), UniProt Q07820). Put plainly: MCL-1 expression in HEL cells by western blotting. It is filed as cell-based. The note with it: 10-20 μM. On the procedure: (§3) With JOSD1 as the prime candidate, JOSD1 binding and inhibition was evaluated by the compounds. First, targeted engagement was confirmed by showing competition with DUB ABP in HEL-FLAG-HA-JOSD1 cells following treatment with the two agents (FIG. 4D). The structures for negative control compounds 66 and 67 are shown below. In addition, the effects of small molecule inhibition of JOSD1 was investigated on MCL-1, an established substrate of JOSD1 (Wu, et al., 2020 Cell Death Differ., 27(1):55-70). […] Other exemplary compounds that inhibit DUBs are listed below in Table 3 (See Supra, ¶ [0063] for structures)
A general note: Immunoblotting shows a protein as a band on a membrane.

For test [2], the system named is JAK2-V617F-positive primary AML patient samples. The experiment in a line: AML liquid culture proliferation, primary patient samples. It is filed as cell-based, human. The text has this: AML liquid culture proliferation and colony assay studies. Frozen vials of bone marrow from AML patients identified as harboring JAK2-V617F were previously Ficoll®-purified to obtain mononuclear cells and thawed prior to use in studies.

For the next test, the target named is SOCS1 (Homo sapiens (Human), UniProt O15524). The experiment in a line: SOCS1 expression in HEL cells by western blotting. The note with it: 5 μM. It is filed as cell-based. On the procedure: as §3
For another test, the system named is JAK2-V617F. The experiment in a line: JAK2 protein level by western blotting in Ba/F3-EPOR-JAK2-V617F cells. It is filed as cell-based. On the procedure:
as §2, with “[…],” for “and 20 μM for 16 or 24 hours,”
as §1

In test [3] the test system is native DUBs (UCHL1, USP30 and JOSD1). The experiment in a line: Competitive activity-based protein profiling with quantitative mass spectrometry in HEK-293T lysates. It is filed as binding. The note with it: block of labeling by DUB activity-based probes. On the procedure: Activity Based Protein Profiling (ABPP) assay. DUB targets were investigated using competitive ABPP with quantitative mass spectrometry. The ability to block labeling of 50 DUBs by ubiquitin-based DUB activity-based probes was quantitatively measured in HEK-293T lysates.
DUB ABPP of Compound Targets. Activity-based probes biotin-Ub-PA (UbiQ-076) and biotin-Ub-VME (UbiQ-054) were obtained from UbiQ Bio. DUB Activity based protein profiling was performed using conditions modified from those in Schauer, et al., 2020, Scientific Reports, 10:1-15, based on work by Lawson, et al., 2017 Oncotarget, 8:51296-316. HEK 293T cells were lysed (50 mM Tris pH 8.0, 150 mM NaCl, 5 mM MgC2, 0.5 mM EDTA, 0.5% NP-40, 10% glycerol, 1 mM tris(2-carboxyethyl)phosphine (TCEP), protease and phosphatase inhibitors) and the lysate was clarified by centrifugation, then diluted to 10 mg/mL. 200 μL aliquots were incubated at the indicated compound concentrations or DMSO for 5 hours at room temperature, final DMSO concentration 0.5%. Afterwards, the treated lysates were incubated with 1 μM each of Biotin-Ub-PA and Biotin-Ub-VME for 90 minutes at room temperature. […]
Specifically, quantitative mass spectrometry was utilized to measure the ability of compounds 1 and 2 to block labeling of […] native DUBs by ubiquitin-based DUB activity-based probes in HEK-293T lysates. […]

Sequence of USP30 (Q70CQ3 whole entry, species assumed): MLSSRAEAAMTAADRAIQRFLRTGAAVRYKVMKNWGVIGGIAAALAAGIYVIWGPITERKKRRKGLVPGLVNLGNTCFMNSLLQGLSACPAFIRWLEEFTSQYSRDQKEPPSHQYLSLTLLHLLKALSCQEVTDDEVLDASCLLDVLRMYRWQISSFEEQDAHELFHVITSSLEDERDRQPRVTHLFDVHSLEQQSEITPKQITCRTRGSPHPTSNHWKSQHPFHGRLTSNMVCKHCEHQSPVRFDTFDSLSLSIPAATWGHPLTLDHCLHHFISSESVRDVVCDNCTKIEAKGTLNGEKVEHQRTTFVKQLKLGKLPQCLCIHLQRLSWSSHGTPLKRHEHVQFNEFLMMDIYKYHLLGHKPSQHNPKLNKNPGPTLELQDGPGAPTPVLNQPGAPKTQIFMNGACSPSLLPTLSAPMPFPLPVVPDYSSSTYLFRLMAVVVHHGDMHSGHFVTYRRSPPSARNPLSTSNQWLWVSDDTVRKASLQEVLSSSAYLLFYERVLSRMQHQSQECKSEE

On to `Cc1noc(C)c1-c1cccc2nc(NC(=O)[C@H]3CCN(C#N)C3)sc12` [Compound 2, (S)-1-cyano-N-(7-(3,5-dimethylisoxazol-4-yl)benzo[d]thiazol-2-yl)pyrrolidine-3-carboxamide], for which, on USP30, the “USP30 biochemical IC50 (range in words)” value is “several hundred”. The “killing of Ba/F3-EPOR-JAK2-V617F cells compared to wt JAK2-expressing parental Ba/F3 cells” value in test [1] is reported as “selective killing”. The cell growth inhibition entry in test [1] (1, 3 and 10 μM, 24 hours, independent experiments) is listed as “inhibit growth”. Also, on wt JAK2, the “JAK2 levels in wt cells” value was “little to no impact on JAK2 levels”. Further, the MCL-1 expression entry at MCL-1 is reported as “decrease”. Besides, the “potency against JAK2-V617F-positive cells versus normal bone marrow cells” value in test [2] (compound 2: 24 h treatment, ruxolitinib: FIG. 16C) is reported as “higher potency exhibited against JAK2-V617F-positive cells than normal bone marrow cells”. The primary cell viability entry in test [2] (starting at concentrations around 1 μM) was “concentration-dependent decrease in primary cell viability”. Also, the SOCS1 expression entry at SOCS1 is “decrease”. Moreover, in the test with JAK2-V617F (18 hours, 10 μM compound 1 or 5 μM compound 2), the “JAK2 degradation, independent western blotting” value is “degradation of JAK2”. Moreover, in the test with JAK2-V617F (Ba/F3-EPOR-JAK2-V617F-expressing cells), the JAK2-V617F protein level entry is on record as “decreases in JAK2-V617F protein”. Further, the “target engagement of UCHL1, USP30 and JOSD1” value in test [3] is recorded as “dose-dependent target engagement”.

For the origin of these results see patent publication US20240335427A1, “SMALL MOLECULE INHIBITION OF DEUBIQUITINATING ENZYME JOSEPHIN DOMAIN CONTAINING 1 (JOSD1) AS A TARGETED THERAPY FOR LEUKEMIAS WITH MUTANT JANUS KINASE 2 (JAK2)” (DANA-FARBER CANCER INSTITUTE, INC., priority 2021, published 2024).
